{
  "source": "patent US7968565B2",
  "about": "“Therapeutic combinations comprising (+)-1,4-dihydro-7-[(3S,4S)-3-methoxy-4-(methylamino)-1-pyrrolidinyl]-4-oxo-1-(2-thiazolyl)-1,8-naphthyridine-3-carboxylic acid” (Sunesis Pharmaceuticals, Inc., priority 2004, dated 2011)",
  "key": {"DNA-PK pathway [1]": {"test_system": "DNA-PK pathway", "assay": "Pharmacodynamic study, HCT116 xenograft tumors, Western blots (FIG. 3)", "format": "in vivo", "conditions": "nu/nu mice, IV bolus 20 or 40 mg/kg, 1-24 hours post dose", "method": "Nu/nu mice (ca. 25 grams) were injected with HCT116 cells (which were obtained from the ATCC) in the hind flank at 5 million cells with 50% matrigel (Becton-Dickinson). Tumors were allowed to grow to 400 mm^3. Xenograft bearing animals were then given either an IV bolus injection of SNS-595 (20 or 40 mg/kg) in the tail vein or a saline vehicle. At prescribed time points (1, 2, 4, 8, 16, and 24 hours post dose), animals were anesthetized with CO2, blood was taken via terminal cardiac puncture, and animals were sacrificed. Tumors were excised, pulverized using liquid nitrogen-cooled mortar and pestle, and flash-frozen in liquid nitrogen. Tumor lysates were made from pulverized samples by addition of lysis buffer. The protein concentrations of the DNA-PK pathway members were determined by Western blots. Approximately 25 micrograms of protein was loaded per lane on an SDS-PAGE gel. Proteins were separated by gel electrophoresis, blotted onto nitrocellulose membranes, and detected using the following antibodies: H2AX, phosphorylated at S139 (Cell Signaling, catalog no. 2577L); p53, phosphorylated at S15 (Cell Signaling, catalog no. 9284S); p53, phosphorylated at S37 (Cell Signaling, catalog no. 9289S); p21 (Cell Signaling, catalog no. 2946); cdc2, phosphorylated at Y15 (Calbiochem, catalog no. 219437); cyclin B (Santa Cruz, catalog no.sc-594 (H-20)); p73, phosphorylated at […] […]"}, "DNA-PK pathway [2]": {"test_system": "DNA-PK pathway", "assay": "Dose-dependent responses of DNA-PK pathway members in HCT 116 cells (FIG. 2)", "format": "cell-based", "conditions": "H2AX, c-Abl, p53, p73, p21, caspase-9, caspase-3", "from_the_text": "(§1) This damage impedes the ability of the cell to synthesize DNA and lengthens the time the cell spends in the S phase. […] When the DNA damage is sufficiently severe such that the double-strand breaks cannot be repaired through non-homologous end joining (NHEJ), the cell rapidly enters apoptosis. Some cells are able to reach the G2 phase but are subsequently arrested (mediated by cdc2/cyclin B) because the cells are too damaged to enter into the M phase and also eventually becomes apoptotic."}, "non-proliferating cells": {"test_system": "non-proliferating cells", "assay": "Cytotoxicity to non-proliferating cells", "format": "cell-based", "conditions": "doses cytotoxic to proliferating cells", "from_the_text": "as §1, with “Treatment with SNS-595 results in an increase in the number of double-strand DNA breaks that form during the S phase. This” for “This”"}, "[3]": {"assay": "Pharmacokinetics of SNS-595 in cancer patients", "format": "in vivo, human", "method": "SNS-595 was administered to enrolled patients for up to six cycles. A cycle is defined as a three-week period, with SNS-595 administered on the first day of each cycle (day 0), followed by at least 21 days of observation. SNS-595 was administered to cohorts of at least 3 patients and dose escalation occurred by sequential cohort."}, "various cells": {"test_system": "various cells", "assay": "Cytotoxicity of SNS-595 in various cells", "format": "cell-based", "from_the_text": "SNS-595 is a cell cycle inhibitor and arrests cells at the G2 interface. Initially, the activity of SNS-595 was believed due to topoisomerase II inhibition.\nAs shown by FIG. 1, ATM, ATR, and DNA-PK are three central DNA sensors/effectors that depending on the level of DNA damage that is detected within an individual cell, direct the cell into one of several outcomes including DNA repair, G2 arrest or apoptosis."}, "[4]": {"test_system": "stable variant of HCT-116 cells", "assay": "Sensitivity of SNS-595-resistant HCT-116 variant", "format": "cell-based", "conditions": "cells with induced resistance", "from_the_text": "Consistent with this mechanism, cells with induced resistance to SNS-595 also have alterations in the DNA-PK pathway. […] Conversely, decreased levels of DNA-PK or its activity (e.g. in the presence of an inhibitor) is associated with an increased sensitivity to SNS-595."}},
  "note": "pEC50: −log10 of the molar value.",
  "data": [
    {"compound": "CN[C@H]1CN(c2ccc3c(=O)c(C(=O)O)cn(-c4nccs4)c3n2)C[C@@H]1OC", "note": "[SNS-595, (+)-1,4-dihydro-7-[(3S,4S)-3-methoxy-4-(methylamino)-1-pyrrolidinyl]-4-oxo-1-(2-thiazoyl)-1,8-naphthyridine-3-carboxylic acid]", "values": [
      {"measurement": "levels of DNA-PK pathway members in tumors", "setting": "DNA-PK pathway [1]", "value": "activated"},
      {"measurement": "activation of DNA-PK mediated repair and apoptotic machinery", "setting": "DNA-PK pathway [2]", "value": "activates, in a dose dependent manner"},
      {"measurement": "lethality to non-proliferating cells", "setting": "non-proliferating cells", "value": "non-lethal"},
      {"measurement": "relation of dose with AUC∞", "setting": "[3]; dose escalation by cohort", "value": "linear"},
      {"measurement": "MRT inf", "setting": "[3]; human, intravenous, plasma, dose 3 mg/m2, mean, read-out: MRTINF_obs", "value": 22, "unit": "h"},
      {"measurement": "MRTINF_obs", "setting": "[3]; plasma, dose 6 mg/m2, mean", "value": 29.05, "unit": "h"},
      {"measurement": "C0", "setting": "[3]; plasma, dose 12 mg/m2, mean", "value": 2888.66, "unit": "ng/mL"},
      {"measurement": "MRTINF_obs", "setting": "[3]; plasma, dose 12 mg/m2, mean", "value": 23.67, "unit": "h"},
      {"measurement": "pEC50", "setting": "various cells", "value": "6.52 to 6.70"},
      {"measurement": "difference in potency, cell EC50 versus biochemical inhibition of topoisomerase II", "setting": "various cells", "value": "at least a ten-fold difference"},
      {"measurement": "EC50 in caffeine treated cells (G2 arrest abrogated) versus untreated cells", "setting": "various cells; caffeine inhibits ATM and ATR", "value": "essentially no difference in EC50 values"},
      {"measurement": "activity in 2-deoxyglucose treated cells versus untreated cells", "setting": "various cells; topoisomerase II levels modulated with 2-deoxyglucose", "value": "essentially no difference in activity"},
      {"measurement": "sensitivity to SNS-595 relative to HCT-116 cells", "setting": "[4]", "value": "approximately ten fold less sensitive"}
    ]}
  ]
}
